Common to all, as to experiment: direct inhibition of CYP450 in human liver microsomes
What all share (type): in vitro ADME
Background: Liver microsomes are vesicles of endoplasmic reticulum, rich in cytochrome P450 enzymes.

One data set has as its target T1, CYP2C19 (Homo sapiens, UniProt P33261).
T1 construct: from tissue; host or cells: human liver microsomes (pooled in the time-dependent assay)
The conditions noted are these: for activity at 3 µM / activity at 10 µM / activity at 50 µM: % of non-inhibited control, read-out: CYP2C19 T0 % activity; for IC50: estimated from 3, 10, 50 uM, read-out: CYP2C19 T0 estimated IC50. As to the method:
(§1) Direct inhibition: […] A Perspective of the Pharmaceutical Research and Manufacturers of America”, Drug Metabolism and Disposition, 37 (7): 1355, 2009). For 3A4, the % activity was measured using both midazolam and testosterone as probes. Each compound at 3, 10, and 50 μM was incubated with HLM, NADPH and CYP isoenzyme specific probe substrates at 37° C. Inhibition of the probe substrate metabolism was quantified using LC/MS/MS. […] Known chemical inhibitors specific for the individual CYP isoenzymes were evaluated in parallel as positive controls and these compounds produced CYP inhibition consistent with published results (Walsky & Obach RS. “Validated assays for human cytochrome P450 activities”. Drug Metab Dispos. 32(6):647-60, 2004). Note that, in Tables 6 and 7, the “Compound No” corresponds to the compound numbers in Table 1.

In another data set the target is T2, CYP2D6 (Homo sapiens, UniProt P10635).
T2 construct: from tissue; host or cells: human liver microsomes (pooled in the time-dependent assay)
The note with it: for activity at 3 µM / activity at 10 µM / activity at 50 µM: % of non-inhibited control, read-out: CYP2D6 T0 % activity; for IC50: estimated from 3, 10, 50 uM, read-out: CYP2D6 T0 estimated IC50. As to the method:
as §1

The target of another data set is T3, CYP1A2 (Homo sapiens, UniProt P05177).
T3 construct: from tissue; host or cells: human liver microsomes (pooled in the time-dependent assay)
T3 sequence (P05177 1-516): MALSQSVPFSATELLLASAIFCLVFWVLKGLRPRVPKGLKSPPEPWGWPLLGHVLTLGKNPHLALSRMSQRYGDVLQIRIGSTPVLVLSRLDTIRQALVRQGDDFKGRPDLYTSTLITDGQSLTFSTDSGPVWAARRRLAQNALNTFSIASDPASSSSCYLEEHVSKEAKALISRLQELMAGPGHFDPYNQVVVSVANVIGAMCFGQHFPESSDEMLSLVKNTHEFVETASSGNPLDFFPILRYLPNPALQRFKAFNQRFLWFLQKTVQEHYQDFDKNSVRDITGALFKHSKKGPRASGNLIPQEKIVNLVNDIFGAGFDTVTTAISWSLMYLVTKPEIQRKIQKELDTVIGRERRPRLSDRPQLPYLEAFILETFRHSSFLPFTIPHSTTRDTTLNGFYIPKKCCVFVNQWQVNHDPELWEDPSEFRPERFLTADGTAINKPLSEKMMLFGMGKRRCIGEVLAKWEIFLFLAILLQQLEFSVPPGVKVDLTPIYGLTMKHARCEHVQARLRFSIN
The method, then: as §1

A further data set addresses T4, CYP2B6 (Homo sapiens, UniProt P20813).
T4 construct: from tissue; host or cells: human liver microsomes (pooled in the time-dependent assay)
T4 sequence (P20813 1-491): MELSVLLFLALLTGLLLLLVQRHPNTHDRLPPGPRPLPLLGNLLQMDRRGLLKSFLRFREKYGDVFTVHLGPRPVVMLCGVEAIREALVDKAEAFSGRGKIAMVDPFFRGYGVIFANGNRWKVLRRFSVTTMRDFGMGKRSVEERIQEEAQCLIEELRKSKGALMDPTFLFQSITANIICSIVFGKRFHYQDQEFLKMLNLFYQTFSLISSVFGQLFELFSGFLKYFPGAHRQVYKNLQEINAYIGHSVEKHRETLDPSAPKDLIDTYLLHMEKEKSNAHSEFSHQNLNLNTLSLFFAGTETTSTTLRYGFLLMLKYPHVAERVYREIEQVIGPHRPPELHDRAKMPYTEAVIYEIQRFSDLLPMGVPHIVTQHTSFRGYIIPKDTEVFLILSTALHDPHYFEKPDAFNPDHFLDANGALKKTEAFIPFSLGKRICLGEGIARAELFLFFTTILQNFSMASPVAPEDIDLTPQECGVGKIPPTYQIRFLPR
The conditions noted are these: for activity at 3 µM / activity at 10 µM / activity at 50 µM: % of non-inhibited control, read-out: CYP2B6 T0 % activity; for IC50: estimated from 3, 10, 50 uM, read-out: CYP2B6 T0 estimated IC50. The method, then:
as §1

The target of a further data set is T5, CYP2C9 (Homo sapiens, UniProt P11712).
T5 construct: from tissue; host or cells: human liver microsomes (pooled in the time-dependent assay)
The conditions noted are these: for activity at 3 µM / activity at 10 µM / activity at 50 µM: % of non-inhibited control, read-out: CYP2C9 T0 % activity; for IC50: estimated from 3, 10, 50 uM, read-out: CYP2C9 T0 estimated IC50. The method, then:
as §1

Setting [1] is: 3 uM, human liver microsomes, % of non-inhibited control, read-out: CYP1A2 T0 % activity.
The mark [2] stands for this setting: 10 uM, human liver microsomes, % of non-inhibited control, read-out: CYP1A2 T0 % activity.
Setting [3] is: 50 uM, human liver microsomes, % of non-inhibited control, read-out: CYP1A2 T0 % activity.
[4] abbreviates: human liver microsomes, estimated from 3, 10, 50 uM, read-out: CYP1A2 T0 estimated IC50.

Where two headings read alike, the source gives them in different places.

T5 sequence (P11712 whole entry): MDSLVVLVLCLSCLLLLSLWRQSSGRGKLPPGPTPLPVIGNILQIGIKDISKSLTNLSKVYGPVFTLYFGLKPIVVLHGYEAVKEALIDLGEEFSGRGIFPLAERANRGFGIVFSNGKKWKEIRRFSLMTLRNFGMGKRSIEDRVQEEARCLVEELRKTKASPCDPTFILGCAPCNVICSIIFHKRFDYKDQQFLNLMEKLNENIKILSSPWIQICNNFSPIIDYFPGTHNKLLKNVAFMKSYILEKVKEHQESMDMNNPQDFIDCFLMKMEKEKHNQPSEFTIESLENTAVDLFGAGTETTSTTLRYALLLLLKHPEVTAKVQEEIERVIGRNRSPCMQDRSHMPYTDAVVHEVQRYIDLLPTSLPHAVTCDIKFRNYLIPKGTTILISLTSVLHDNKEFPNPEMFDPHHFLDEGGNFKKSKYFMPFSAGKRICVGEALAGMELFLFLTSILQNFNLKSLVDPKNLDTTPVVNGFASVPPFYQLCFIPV
T1 sequence (P33261 whole entry): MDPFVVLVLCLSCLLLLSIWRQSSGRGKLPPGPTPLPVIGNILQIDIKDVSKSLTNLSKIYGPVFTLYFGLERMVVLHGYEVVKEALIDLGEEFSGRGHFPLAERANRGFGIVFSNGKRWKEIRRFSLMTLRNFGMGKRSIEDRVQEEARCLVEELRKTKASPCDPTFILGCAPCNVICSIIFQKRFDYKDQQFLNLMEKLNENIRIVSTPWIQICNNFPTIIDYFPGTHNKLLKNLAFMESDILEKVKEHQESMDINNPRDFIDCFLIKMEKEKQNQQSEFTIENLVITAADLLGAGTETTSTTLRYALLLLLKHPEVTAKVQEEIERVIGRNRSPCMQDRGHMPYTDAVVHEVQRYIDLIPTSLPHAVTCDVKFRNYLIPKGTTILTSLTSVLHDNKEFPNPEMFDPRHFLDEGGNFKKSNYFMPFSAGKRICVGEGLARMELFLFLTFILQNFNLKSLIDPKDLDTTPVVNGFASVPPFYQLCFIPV
T2 sequence (P10635 whole entry): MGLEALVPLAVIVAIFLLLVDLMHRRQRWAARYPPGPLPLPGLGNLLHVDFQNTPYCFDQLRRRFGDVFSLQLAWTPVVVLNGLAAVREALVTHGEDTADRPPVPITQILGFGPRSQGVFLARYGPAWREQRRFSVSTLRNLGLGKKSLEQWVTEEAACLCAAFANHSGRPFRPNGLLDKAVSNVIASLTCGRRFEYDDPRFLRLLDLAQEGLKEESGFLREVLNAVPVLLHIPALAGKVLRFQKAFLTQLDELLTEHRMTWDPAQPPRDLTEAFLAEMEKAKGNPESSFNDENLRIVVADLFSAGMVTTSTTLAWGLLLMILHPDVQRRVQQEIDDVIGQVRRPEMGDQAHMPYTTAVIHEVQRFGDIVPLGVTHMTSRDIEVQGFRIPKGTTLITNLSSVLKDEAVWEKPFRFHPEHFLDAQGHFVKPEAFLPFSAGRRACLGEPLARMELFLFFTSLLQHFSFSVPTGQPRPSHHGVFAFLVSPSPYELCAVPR

In general, IC50 refers to the concentration needed to halve the response being measured. For the molecule `Cn1cncc1-c1ccnc(C(=O)Nc2ccc(C(C)(C)O)nc2)n1` [Compound 250, N-(6-(2-hydroxypropan-2-yl)pyridin-3-yl)-4-(1-methyl-1H-imidazol-5-yl)pyrimidine-2-carboxamide], the activity at 3 µM came to 88% on CYP2C19; 103% on CYP2D6; 88% on CYP1A2 (human, microsomes); 101% at CYP2B6; 99% on CYP2C9. In addition, the activity at 10 µM at CYP2C19 worked out at 88%; on CYP2D6, 86%; at CYP1A2 (human, microsomes) it was 69%; on CYP2B6, 99%; at CYP2C9, 94%. For the same molecule, the activity at 50 µM on CYP2C19 was found to be 66%; on CYP2D6, 47%; at CYP1A2 (human, microsomes), 34%; at CYP2B6, 89%; on CYP2C9, 89%. Besides, the IC50 at CYP2C19 was above 50 µM; on CYP2D6 it was below 50 µM; against CYP1A2, below 50 µM; at CYP2B6 it was above 50 µM; on CYP2C9 it was above 50 µM.
As for `CC(C)(O)c1ccc(NC(=O)c2nccc(-n3ccnc3)n2)cn1` [Compound 249, N-(6-(2-hydroxypropan-2-yl)pyridin-3-yl)-4-(1H-imidazol-1-yl)pyrimidine-2-carboxamide], the activity at 3 µM was 95% on CYP2C19; 104% on CYP2D6; 99% at CYP1A2 (human, microsomes); 98% on CYP2B6; 106% on CYP2C9. Besides, the activity at 10 µM at CYP2C19 turned out to be 96%; on CYP2D6, 103%; on CYP1A2 (human, microsomes) it was 93%; at CYP2B6 it was 98%; on CYP2C9, 103%. The activity at 50 µM on CYP2C19 was determined as 74%; on CYP2D6, 87%; on CYP1A2 (human, microsomes), 81%; on CYP2B6, 92%; at CYP2C9 it was 92%. The IC50 at CYP2C19, at CYP2D6, against CYP1A2, at CYP2B6 and at CYP2C9 was above 50 µM in each case.
For the molecule `CO[C@H]1CC[C@H](NC(=O)c2cc(C3CCC(F)(F)CC3)nc(-c3cncn3C)n2)CC1` [Compound 289, 6-(4,4-difluorocyclohexyl)-N-((1r,4r)-4-methoxycyclohexyl)-2-(1-methyl-1H-imidazol-5-yl)pyrimidine-4-carboxamide], the activity at 3 µM turned out to be 83% on CYP2C19; 98% at CYP2D6; 100% on CYP1A2 (setting [1]); 98% at CYP2B6; 96% at CYP2C9. In addition, the activity at 10 µM at CYP2C19 came to 63%; on CYP2D6 it was 98%; on CYP1A2 (setting [2]), 95%; on CYP2B6, 95%; on CYP2C9 it was 81%. The activity at 50 µM is 23% at CYP2C19; 64% at CYP2D6; 81% at CYP1A2 (setting [3]); 79% on CYP2B6; 49% at CYP2C9. Moreover, the IC50 at CYP2C19 is below 50 µM; at CYP2D6, above 50 µM; at CYP1A2 (setting [4]), above 50 µM; on CYP2B6 it was above 50 µM; at CYP2C9, below 50 µM.
With `CO[C@H]1CC[C@H](NC(=O)c2cc(C3(C)COC3)nc(-c3cncn3C)n2)CC1` [Compound 295, N-((1r,4r)-4-methoxycyclohexyl)-2-(1-methyl-1H-imidazol-5-yl)-6-(3-methyloxetan-3-yl)pyrimidine-4-carboxamide], the activity at 3 µM at CYP2C19 is 108%; on CYP2D6, 95%; on CYP1A2 (setting [1]) it was 101%; on CYP2B6 it was 96%; at CYP2C9, 91%. The activity at 10 µM is 100% at CYP2C19; 79% at CYP2D6; 98% at CYP1A2 (setting [2]); 91% on CYP2B6; 85% on CYP2C9. Further, the activity at 50 µM amounted to 79% at CYP2C19; 36% at CYP2D6; 97% on CYP1A2 (setting [3]); 79% on CYP2B6; 63% at CYP2C9. The concentration for half-maximal inhibition (IC50) at CYP2C19 is above 50 µM; at CYP2D6, below 50 µM; at CYP1A2 (setting [4]), above 50 µM; on CYP2B6, above 50 µM; on CYP2C9, above 50 µM.
In the case of `Cn1cncc1-c1ccnc(C(=O)N[C@H]2CC[C@H](O)CC2)n1` [Compound 256, N-((1r,4r)-4-hydroxycyclohexyl)-4-(1-methyl-1H-imidazol-5-yl)pyrimidine-2-carboxamide], the activity at 3 µM was 97% on CYP2C19; 89% on CYP2D6; 94% on CYP1A2 (setting [1]); 103% on CYP2B6; 90% at CYP2C9. Further, the activity at 10 µM on CYP2C19 was 96%; on CYP2D6 it was 87%; on CYP1A2 (setting [2]) it was 92%; at CYP2B6, 101%; on CYP2C9, 94%. In addition, the activity at 50 µM on CYP2C19 was determined as 88%; at CYP2D6, 56%; at CYP1A2 (setting [3]) it was 78%; on CYP2B6, 91%; on CYP2C9, 86%. Moreover, the IC50 on CYP2C19, at CYP2D6, on CYP1A2 (setting [4]), on CYP2B6 and at CYP2C9 was above 50 µM throughout.
As for `CO[C@H]1CC[C@H](NC(=O)c2cc(C3CCOCC3)nc(-c3cncn3C)n2)CC1` [Compound 199, N-((1r,4r)-4-methoxycyclohexyl)-2-(1-methyl-1H-imidazol-5-yl)-6-(tetrahydro-2H-pyran-4-yl)pyrimidine-4-carboxamide], the activity at 3 µM on CYP2C19 was 92%; at CYP1A2 (setting [1]) it was 96%; at CYP2B6, 95%; at CYP2C9, 101%. Moreover, the activity at 10 µM at CYP2C19 is 85%; on CYP1A2 (setting [2]), 96%; on CYP2B6, 80%; on CYP2C9, 96%. Besides, the activity at 50 µM at CYP2C19 was found to be 39%; on CYP1A2 (setting [3]) it was 85%; on CYP2B6 it was 53%; at CYP2C9 it was 69%. Besides, the IC50 on CYP2C19 was below 50 µM; at CYP1A2 (setting [4]) it was above 50 µM; at CYP2B6 it was above 50 µM; at CYP2C9 it was above 50 µM.

The values above are taken from patent US20230116972A1, “CD38 MODULATORS AND METHODS OF USE THEREOF” (Cytokinetics, Inc., priority 2021, published 2023).
